# Experimental data: patent US8067394B2, “Synthesis and biological activities of new tricyclic-bis-enones (TBEs)” (Trustees of Dartmouth College, priority 2006, dated 2011)
# Entries after “also recorded” stand apart in the source; their conditions may differ. Read-outs that look alike come from different tables or passages of the source.
# Assays:
# [1] = test system: NO production in RAW cells; assay: Inhibition of NO production in RAW cells stimulated with interferon-γ; format: cell-based, mouse; settings: for IC50: read-out: IC50 (nM), NO production in RAW cells
# [2] = test system: NO production in primary mouse macrophages; settings: cited from earlier work; for IC50: Table 1, stimulated with interferon-γ, compounds racemic
# [3] = test system: NO production in RAW cells; settings: Honda et al., 2000, 2002; cited from earlier work
# heme oxygenase-1 = assay: Induction of heme oxygenase-1 in liver of CD-1 mice after gavage; format: in vivo; settings: FIG. 3; CD-1 mice, gavage in DMSO, livers after 6 h
# Description: FIG. 3. […] CD-1 mice (2 per group) were gavaged with TBEs or CDDO-Im in DMSO. After 6 h, livers were harvested and homogenized. Lysates were separated by SDS-PAGE, probed with HO-1 antibodies, and developed by ECL.
# FIG. 11. […] Male CD-1 mice (3 per group) were gavaged with 1 μmol TBEs, CDDO or CDDO-Im in DMSO. Six hours later, livers were harvested and homogenized. Lysates were separated by SDS-PAGE, probed with HO-1 antibodies, and developed by ECL.
# CD-1 mice (2 per group) were gavaged with TBEs or CDDO-Im in DMSO. After 6 h, livers were harvested and homogenized. Lysates were separated by SDS-PAGE, probed with HO-1 antibodies, and developed by ECL.
# HO-1 = assay: Induction of HO-1 in RAW cells (Western blot); format: cell-based, mouse; settings: FIG. 9; 30-300 nM, 24 hours
# [4] = test system: MCF-7 mouse breast cancer cell lines; settings: Honda et al., 2003; cited from earlier work
# iNOS = assay: Inhibition of iNOS induction in RAW cells stimulated with IFN-γ (Western blot); format: cell-based, mouse; settings: FIG. 10; 30-300 nM, IFNγ 10 ng/ml, 24 hours
# [5] = Mus musculus, Table 5, C-8a functionalized TBE-9 analogs, stimulated with interferon-γ
# [6] = Mus musculus, Table 6, optically active TBE-31 and 34, stimulated with interferon-7
smiles,measurement,setting,value
CC#CC12C=C(C#N)C(=O)C=C1C1(C)C=C(C#N)C(=O)C(C)(C)C1CC2 (stereo not shown) [TBE-35],IC50,[1]; [5],5 nM
CC(=O)O[C@@H]1CCC=C2[C@@]3(C)C=C(C#N)C(=O)C(C)(C)[C@@H]3CC[C@]21C [TBE-2],IC50,[2],480 nM
"COC(=O)[C@]12CCC(C)(C)C[C@H]1C1C(=O)C=C3[C@@]4(C)C=C(C(=O)O)C(=O)C(C)(C)[C@@H]4CC[C@@]3(C)[C@]1(C)CC2 (stereo partly shown) [TP-190, reference compound]",Inhibition of NO production in mouse macrophages (in words),"[2]; Honda et al., 2000, 2002",potent inhibitors of NO production
same,Inhibition of NO production in RAW cells (in words),[3],potent inhibitors of NO production
C#C[C@]12C=C(C#N)C(=O)C=C1[C@@]1(C)C=C(C#N)C(=O)C(C)(C)[C@@H]1CC2 [(−)-TBE-31],IC50,[1]; [6],3 nM
"CC1(C)CC[C@]2(C#N)CC[C@]3(C)[C@H](C(=O)C=C4[C@@]5(C)C=C(C#N)C(=O)C(C)(C)[C@@H]5CC[C@]43C)[C@@H]2C1 [TP-225, reference compound]",IC50,[1]; [5],1 nM
CC(=O)O[C@@H]1CC(=O)C=C2[C@@]3(C)C=C(C#N)C(=O)C(C)(C)[C@@H]3CC[C@]21C [TBE-3],IC50,[2],53 nM
CC1(C)C(=O)C(C#N)=C[C@]2(C)C3=CC(=O)C=C[C@]3(C)CC[C@@H]12 [TBE-5],IC50,[2],61 nM
CC1(C)C(=O)C(C#N)=CC2(C)C3=CC(=O)C(C#N)=CC3(C#CC#N)CCC12 (stereo not shown) [TBE-38],IC50,[1]; [5],4 nM
"CC1(C)C(=O)C(C#N)=CC2(C)C3=CC(=O)C(C#N)=CC3(C#C[Si](C)(C)C)CCC12 (single isomer, unassigned; (-)) [(−)-TBE-34]",IC50,"[1]; Table 6, optically active TBE-31 and 34, stimulated with interferon-7",3 nM
C#CC#CC12C=C(C#N)C(=O)C=C1C1(C)C=C(C#N)C(=O)C(C)(C)C1CC2 (stereo not shown) [TBE-39],IC50,[1]; [5],3 nM
same,Potency for inhibition of NO production in RAW cells (in words),"[1]; RAW cells, interferon-γ",nearly equivalent potency to that of TBE-31
"CC1(C)CC[C@]2(C(=O)n3ccnc3)CC[C@]3(C)[C@H](C(=O)C=C4[C@@]5(C)C=C(C#N)C(=O)C(C)(C)[C@@H]5CC[C@]43C)[C@@H]2C1 [CDDO-Im, 1-[2-cyano-3-,12-dioxooleana-1,9(11)-dien-28-oyl]imidazole, reference compound]",Induction of heme oxygenase-1 in liver in vivo,heme oxygenase-1,very potent triterpenoid agent for induction of heme oxygenase-1
same,Induction of HO-1 in RAW cells,HO-1,most potent compound amongst semi-synthetic triterpenoid analogues in this assay
CC1(C)C(=O)C(C#N)=C[C@]2(C)C3=CC(=O)C(C#N)=C[C@]3(C)CC[C@@H]12 [(−)-TBE-9],Activity against MCF-7 mouse breast cancer cell lines,[4],active
"C[C@]12CCC(=O)C=C1CC[C@@H]1[C@@H]2[C@@H](O)C[C@@]2(C)[C@H]1CC[C@]2(O)C(=O)CO [hydrocortisone, reference compound]",IC50,"[1]; Mus musculus, Table 4, C-8a functionalized TBE-10 analogs, stimulated with interferon-γ",61 nM
same,IC50,[2],10 nM
CC1(C)C(=O)C(C#N)=C[C@]2(C)C3=CC(=O)C[C@@H](O)[C@]3(C)CC[C@@H]12 [TBE-4],IC50,[2],75 nM
"CC1(C)CC[C@]2(C(=O)O)CC[C@]3(C)C(=CC[C@@H]4[C@@]5(C)CC[C@H](O)C(C)(C)[C@@H]5CC[C@]43C)[C@@H]2C1 [Oleanolic acid, reference compound]",IC50,[2],> 40000 nM
"C#C[C@@]12C=C(C#N)C(=O)C=C1[C@@]1(C)C=C(C#N)C(=O)C(C)(C)[C@H]1CC2 [(+)-TBE-31, (+)-(4bS,8aS,10aR)-10a-ethynyl-4b,8,8-trimethyl-3,7-dioxo-3,4b,7,8,8a,9,10,10a-octahydrophenanthrene-2,6-dicarbonitrile]",IC50,[1]; [6],1 nM
CCC#CC12C=C(C#N)C(=O)C=C1C1(C)C=C(C#N)C(=O)C(C)(C)C1CC2 (stereo not shown) [TBE-36],IC50,[1]; [5],20 nM
CC1(C)C(=O)C(C#N)=CC2(C)C3=CC(=O)C(C#N)=CC3(C#C[Si](C)(C)C)CCC12 (stereo not shown) [TBE-34],Potency for inhibition of NO production in RAW cells (in words),[1],nearly equivalent potency to that of TBE-31
same,IC50,[1]; Mus musculus,3 nM
same,Inhibition of induction of iNOS in RAW cells stimulated with IFNγ,iNOS,nearly equivalent in potency to TBE-31; also recorded: nearly equivalent in potency to both compounds
same,Induction of HO-1 in RAW cells,HO-1,nearly equivalent in potency to TBE-31
"CC1(C)CC[C@]2(C(=O)O)CC[C@]3(C)[C@H](C(=O)C=C4[C@@]5(C)C=C(C#N)C(=O)C(C)(C)[C@@H]5CC[C@]43C)[C@@H]2C1 [CDDO, 2-cyano-3,12-dioxooleana-1,9(11)-dien-28-oic acid, reference compound]",IC50,"[1]; Table 4, C-8a functionalized TBE-10 analogs, stimulated with interferon-γ",6 nM
same,IC50,"[1]; Table 5, C-8a functionalized TBE-9 analogs, stimulated with interferon-γ",20 nM
same,IC50,[2],0.5 nM
